From US11306125B2, “PCSK9 antagonists bicyclo-compounds” (Merck Sharp & Dohme Corp., priority 2018, dated 2022)
pKd, pKi: −log10 of the molar value. Starred links: 1 amine or outer side, 2 acyl side, 3 side chain; linkers in the order of their positions; H or OH if unused. Positions of bridges follow the written chain, without caps; N, C: chain ends. Non-standard residues stand in square brackets, D forms with d. Residues, ends and D or L forms follow the SMILES beside them. *: point of attachment. X2 = CC1(C)C(/C=C/C=C/C=C2\N(CCCS(=O)(=O)O)c3ccc(S(=O)(=O)O)cc3C2(C)CCCCCC(=O)*)=[N+](CCCS(=O)(=O)[O-])c2ccc(S(=O)(=O)O)cc21; Phe(3-CH2NH2) = O=C([C@H](Cc1cccc(CN[*:3])c1)N[*:1])[*:2]; Me3N+(CH2)2O(CH2)2O(CH2)2CO = C[N+](C)(C)CCOCCOCCC(=O)*; Trp(5-F) = N[C@@H](Cc1c[nH]c2ccc(F)cc12)C(=O)O; X1 = O=C(CCC(=O)[*:1])NCc1ccc(CCN[*:2])cc1; mXylylene = c1cc(C[*:1])cc(C[*:2])c1; AEF = NCCOc1ccc(C[C@H](N)C(=O)O)cc1; Glutaryl = O=C(CCCC(=O)[*:2])[*:1]; NMeE = CN[C@@H](CCC(=O)O)C(=O)O; αMeP = C[C@@]1(C(=O)O)CCCN1; dDap = NC[C@@H](N)C(=O)O; Dap = NC[C@H](N)C(=O)O; Boc = CC(C)(C)OC(=O)*; Mpa = O=C(O)CCS; tBu = CC(C)(C)*

Legend:
Format in all cases: binding
PCSK9 [1] = biological target: T1, PCSK9 (Homo sapiens, UniProt Q8NBP7); assay: PCSK9 Alexa FRET Plus TR-FRET assay
T1 construct: purchased
Method: A solution containing 1 nM biotinylated PCSK9+2.5 nM Lance Streptavidin Europium (Strep-Eu) is made in 50 mM HEPES pH 7.4, 0.15 M NaCl, 5 mM CaCl2, 0.01% BSA, and 0.01% Surfactant P20. A separate solution containing 1920 nM of the AlexaFluor tagged cyclic peptide is made in the same buffer system. An Echo is used to transfer 0.075 ul of compound plus 0.675 ul of DMSO to each well of an assay plate followed by the addition of 15 ul of PCSK9+Stept-Eu and 15 ul of AF peptide. The final assay volume is 30.750 ul containing 0.5 nM PCSK9, 1.25 nM Strep-Eu, and 960 nM AF cyclic peptide. The reaction is incubated at room temperature for at least two hours prior to fluorescence measurements using an Envision Multilabel Reader. IC50 values are determined by fitting data to a sigmoidal dose-response curve using nonlinear regression. Ki is then calculated from the IC50 and the KD of AF cyclic peptide. Counts (B-counts) of the europium-labeled PCSK9 are followed to observe if compounds are adversely affecting PCSK9. A fall off of the B-counts is likely indicates a false positive of inhibition. Data from this procedure is reported as “P=‘numerical value’ (nanomolar)”

PCSK9 [2] = biological target: T1, PCSK9; assay: PCSK9 Alexa FRET Standard TR-FRET assay
Method: A solution containing 1 nM biotinylated PCSK9+2.5 nM Lance Streptavidin Europium (Strep-Eu) is made in 50 mM HEPES pH 7.4, 0.15 M NaCl, 5 mM CaCl2, 0.01% BSA, and 0.01% Surfactant P20. […] An Echo is used to transfer 0.750 ul of compound to an assay plate followed by the addition of 15 ul of PCSK9+Stept-Eu and 15 ul of AF peptide. […] The reaction is incubated at room temperature for at least two hours prior to fluorescence measurements using an Envision Multilabel Reader. IC50 values are determined by fitting data to a sigmoidal dose-response curve using nonlinear regression. Ki is then calculated from the Ic50 and the KD of AF cyclic peptide. Counts (B-counts) of the europium-labeled PCSK9 are followed to observe if compounds are adversely PCSK9. A fall off of the B-counts is likely indicates a false positive of inhibition. Data from this procedure is reported as “A=‘numerical value’ (nanomolar)”

PCSK9 [3] = biological target: T1, PCSK9; assay: KD of the AlexaFluor647 tagged cyclic peptide probes for PCSK9; settings: AF tagged cyclic peptide probe, interaction with PCSK9
[4] = displacement of AlexaFluor647 tagged cyclic peptide Reagent B (960 nM) from biotinylated PCSK9 (0.5 nM), read-out: Plus / P (Alexa Fret plus standard TR Fret), Ki calculated from the IC50 and the KD of AF cyclic peptide
[5] = displacement of AlexaFluor647 tagged cyclic peptide Reagent A (20 nM) from biotinylated PCSK9 (0.5 nM), read-out: A (standard TR Fret), Ki calculated from the IC50 and the KD of AF cyclic peptide

T1 sequence (Q8NBP7 153-692): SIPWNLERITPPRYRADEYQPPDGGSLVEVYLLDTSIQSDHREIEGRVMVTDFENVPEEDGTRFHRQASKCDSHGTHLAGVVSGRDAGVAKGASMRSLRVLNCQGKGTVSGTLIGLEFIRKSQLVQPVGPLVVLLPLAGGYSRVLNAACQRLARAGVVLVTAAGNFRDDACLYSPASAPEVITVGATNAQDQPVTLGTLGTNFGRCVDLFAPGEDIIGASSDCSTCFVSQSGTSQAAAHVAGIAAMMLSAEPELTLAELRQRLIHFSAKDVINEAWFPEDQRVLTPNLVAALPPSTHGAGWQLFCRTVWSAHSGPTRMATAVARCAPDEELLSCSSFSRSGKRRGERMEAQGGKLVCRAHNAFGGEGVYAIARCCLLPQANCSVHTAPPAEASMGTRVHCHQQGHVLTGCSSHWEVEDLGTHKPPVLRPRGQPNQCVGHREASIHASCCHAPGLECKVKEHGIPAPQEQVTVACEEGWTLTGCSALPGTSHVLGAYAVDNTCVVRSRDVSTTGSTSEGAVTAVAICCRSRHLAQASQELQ

| SMILES | pKi (PCSK9 [2]; [5]) | pKi (PCSK9 [1]) | pKi (PCSK9 [2]) | other results |
| --- | --- | --- | --- | --- |
| COc1ccc(C[C@@H]2NC(=O)[C@H]([C@H](C)O)NC(=O)[C@@H]3[C@@H]4CCN3C(=O)[C@H](Cc3c[nH]c5ccc(F)cc35)NC(=O)[C@H](Cc3cccc(c3)Cn3cc(nn3)CO4)NC(=O)[C@@H](C)NC(=O)[C@H](CNC(=O)CCOCCOCC[N+](C)(C)C)NC(=O)CCC(=O)NCc3ccc(cc3)C[C@@H](C(N)=O)NC(=O)[C@]3(C)CCCN3C2=O)cc1 [Ex-OT-05] |  | 9.72 | > 8.90 |  |
| COc1ccc(C[C@@H]2NC(=O)[C@H]([C@@H](C)O)NC(=O)[C@@H]3[C@@H]4CCN3C(=O)[C@H](Cc3c[nH]c5ccc(F)cc35)NC(=O)[C@H](Cc3cccc(c3)CNC(=O)CO4)NC(=O)C(CN)NC(=O)[C@H](C)NC(=O)CCC(=O)NCc3ccc(cc3)CCNC(=O)[C@]3(C)CCCN3C2=O)cc1 (stereo partly shown) [Ex-B03] |  | 11.10 | > 8.90 |  |
| CC1(C)C(/C=C/C=C/C=C2\N(CCCS(=O)(=O)O)c3ccc(S(=O)(=O)O)cc3C2(C)CCCCCC(=O)NCCCC[C@@H]2NC(=O)CCSCc3cccc(c3)CSC[C@@H](C(N)=O)NC(=O)[C@]3(C)CCCN3C(=O)[C@H](Cc3ccc(O)cc3)NC(=O)[C@H](Cc3c[nH]cn3)NC(=O)[C@H](CC(=O)O)NC(=O)[C@H](Cc3c[nH]c4ccc(F)cc34)NC(=O)[C@H](Cc3c[nH]c4ccc(F)cc34)NC(=O)CNC2=O)=[N+](CCCS(=O)(=O)[O-])c2ccc(S(=O)(=O)O)cc21 (stereo partly shown) [Reagent A] ([Mpa]K(X2)G[Trp(5-F)][Trp(5-F)]DHY[αMeP]C-NH2; linker 1-10 via mXylylene) |  |  |  | pKd (PCSK9 [3]): 7.08 |
| COc1ccc(C[C@@H]2NC(=O)[C@H]([C@@H](C)O)NC(=O)[C@@H]3[C@@H]4CCN3C(=O)[C@H](Cc3c[nH]c5ccc(F)cc35)NC(=O)[C@H](Cc3cccc(c3)CNC(=O)CO4)NC(=O)[C@@H](C)NC(=O)[C@H](CN)NC(=O)CCC(=O)NCc3ccc(cc3)CCNC(=O)[C@]3(C)CCCN3C2=O)cc1 [Ex-B01] |  | 8.91 | 8.69 |  |
| COc1ccc(C[C@@H]2NC(=O)[C@H]([C@@H](C)O)NC(=O)C[C@@H]3[C@@H]4CCN3C(=O)[C@H](Cc3c[nH]c5ccc(F)cc35)NC(=O)[C@H](Cc3cccc(c3)CNC(=O)CO4)NC(=O)[C@@H](CNC(=O)CCOCCOCC[N+](C)(C)C)NC(=O)[C@H](C)NC(=O)CCC(=O)NCc3ccc(cc3)CCNC(=O)[C@]3(C)CCCN3C2=O)cc1 [Ex-B04] | > 8.90 |  |  | pKi (PCSK9 [1]; [4]): 10.70 |
| COc1ccc(C[C@@H]2NC(=O)[C@H]([C@@H](C)O)NC(=O)[C@@H]3[C@@H]4CCN3C(=O)[C@H](Cc3c[nH]c5ccc(F)cc35)NC(=O)[C@H](Cc3cccc(c3)CNC(=O)CO4)NC(=O)[C@@H](C)NC(=O)[C@H](CNC(=O)CCOCCOCC[N+](C)(C)C)NC(=O)CCC(=O)NCc3ccc(cc3)CCNC(=O)[C@]3(C)CCCN3C2=O)cc1 [Ex-B02] |  | 8.66 | 8.40 |  |
| COc1ccc(C[C@@H]2NC(=O)[C@H]([C@H](C)O)NC(=O)[C@@H]3[C@@H]4CCN3C(=O)[C@H](Cc3c[nH]c5ccc(F)cc35)NC(=O)[C@H](Cc3cccc(c3)Cn3cc(nn3)CO4)NC(=O)[C@@H](C)NC(=O)[C@H](C)NC(=O)[C@@H](NC(C)=O)CC(=O)NCc3ccc(cc3)C[C@@H](C(N)=O)NC(=O)[C@]3(C)CCCN3C2=O)cc1 [Ex-OT-03] | > 8.90 |  |  | pKi (PCSK9 [1]; [4]): 9.49 |
| COc1ccc(C[C@@H]2NC(=O)[C@H]([C@@H](C)O)NC(=O)[C@@H]3[C@@H]4CCN3C(=O)[C@H](Cc3c[nH]c5ccc(F)cc35)NC(=O)[C@H](Cc3cccc(c3)Cn3cc(nn3)CO4)NC(=O)[C@@H](C)NC(=O)[C@H](CNC(=O)CCOCCOCC[N+](C)(C)C)NC(=O)CCC(=O)NCc3ccc(cc3)CCNC(=O)[C@]3(C)CCCN3C2=O)cc1 [Ex-OT-06] |  | 9.54 | > 8.90 |  |

The next lines start with results.

| pKi (PCSK9 [2]; [5]) | SMILES | pKi (PCSK9 [1]) | pKi (PCSK9 [2]) | other results |
| --- | --- | --- | --- | --- |
| > 8.90 | COc1ccc(C[C@@H]2NC(=O)[C@H]([C@H](C)O)NC(=O)[C@@H]3[C@@H]4CCN3C(=O)[C@H](Cc3c[nH]c5ccc(F)cc35)NC(=O)[C@H](Cc3cccc(c3)Cn3cc(nn3)CO4)NC(=O)[C@@H](C)NC(=O)[C@H](CCCC[N+](C)(C)C)NC(=O)CCC(=O)NCc3ccc(cc3)C[C@@H](C(N)=O)NC(=O)[C@]3(C)CCCN3C2=O)cc1 [Ex-OT-04] |  |  | pKi (PCSK9 [1]; [4]): 9.49 |
| 7.74 | COc1ccc(C[C@@H]2NC(=O)[C@H]([C@@H](C)O)NC(=O)[C@@H]3CCC(=O)NCc4cccc(c4)C[C@H](NC(=O)[C@@H](C)NC(=O)[C@H](CNC(=O)CCOCCOCC[N+](C)(C)C)NC(=O)CCC(=O)NCc4ccc(cc4)CCNC(=O)[C@]4(C)CCCN4C2=O)C(=O)N[C@@H](Cc2c[nH]c4ccc(F)cc24)C(=O)N3C)cc1 [Ex-C03] ([Dap](Me3N+(CH2)2O(CH2)2O(CH2)2CO)[dA][Phe(3-CH2NH2)][Trp(5-F)][NMeE]TY(Me)[αMeP]; lactam 3-5; linker N-C via X1) |  |  |  |
| > 8.90 | COc1ccc(C[C@@H]2NC(=O)[C@H]([C@@H](C)OC(C)(C)C)NC(=O)[C@@H]3CCC(=O)NCc4cccc(c4)C[C@H](NC(=O)[C@@H](CNC(=O)OC(C)(C)C)NC(=O)[C@H](C)NC(=O)CCC(=O)NCc4ccc(cc4)CCNC(=O)[C@]4(C)CCCN4C2=O)C(=O)N[C@@H](Cc2c[nH]c4ccc(F)cc24)C(=O)N3C)cc1 [Ex-C05] (A[dDap](Boc)[Phe(3-CH2NH2)][Trp(5-F)][NMeE]T(tBu)Y(Me)[αMeP]; lactam 3-5; linker N-C via X1) |  |  | pKi (PCSK9 [1]; [4]): 8.36 |
| 6.82 | COc1ccc(C[C@@H]2NC(=O)[C@H]([C@@H](C)O)NC(=O)[C@@H]3CCC(=O)NCc4cccc(c4)C[C@H](NC(=O)[C@@H](C)NC(=O)CCCC(=O)NCCOc4ccc(cc4)C[C@@H](C(N)=O)NC(=O)[C@]4(C)CCCN4C2=O)C(=O)N[C@@H](Cc2c[nH]c4ccc(F)cc24)C(=O)N3C)cc1 [Ex-C02] ([dA][Phe(3-CH2NH2)][Trp(5-F)][NMeE]TY(Me)[αMeP][AEF]-NH2; lactam 2-4; linker N-8 via Glutaryl) |  |  |  |
| 7.80 | COc1ccc(C[C@@H]2NC(=O)[C@H]([C@@H](C)O)NC(=O)[C@@H]3CCC(=O)NCc4cccc(c4)C[C@H](NC(=O)[C@@H](CN)NC(=O)[C@H](C)NC(=O)CCC(=O)NCc4ccc(cc4)CCNC(=O)[C@]4(C)CCCN4C2=O)C(=O)N[C@@H](Cc2c[nH]c4ccc(F)cc24)C(=O)N3C)cc1 [Ex-C06] (A[dDap][Phe(3-CH2NH2)][Trp(5-F)][NMeE]TY(Me)[αMeP]; lactam 3-5; linker N-C via X1) |  |  |  |
| 7.56 | COc1ccc(C[C@@H]2NC(=O)[C@H]([C@@H](C)O)NC(=O)[C@@H]3CCC(=O)NCc4cccc(c4)C[C@H](NC(=O)[C@@H](C)NC(=O)[C@H](C)NC(=O)[C@@H](NC(C)=O)CC(=O)NCCOc4ccc(cc4)C[C@@H](C(N)=O)NC(=O)[C@]4(C)CCCN4C2=O)C(=O)N[C@@H](Cc2c[nH]c4ccc(F)cc24)C(=O)N3C)cc1 [Ex-C01] (Ac-DA[dA][Phe(3-CH2NH2)][Trp(5-F)][NMeE]TY(Me)[αMeP][AEF]-NH2; lactam 1-10, 4-6) |  |  |  |
| 8.14 | COc1ccc(C[C@@H]2NC(=O)[C@H]([C@@H](C)O)NC(=O)[C@@H]3CCC(=O)NCc4cccc(c4)C[C@H](NC(=O)[C@@H](CNC(=O)CCOCCOCC[N+](C)(C)C)NC(=O)[C@H](C)NC(=O)CCC(=O)NCc4ccc(cc4)CCNC(=O)[C@]4(C)CCCN4C2=O)C(=O)N[C@@H](Cc2c[nH]c4ccc(F)cc24)C(=O)N3C)cc1 [Ex-C07] (A[dDap](Me3N+(CH2)2O(CH2)2O(CH2)2CO)[Phe(3-CH2NH2)][Trp(5-F)][NMeE]TY(Me)[αMeP]; lactam 3-5; linker N-C via X1) |  |  |  |
| 8.37 | COc1ccc(C[C@@H]2NC(=O)[C@H]([C@@H](C)O)NC(=O)[C@@H]3CCC(=O)NCc4cccc(c4)C[C@H](NC(=O)[C@@H](C)NC(=O)[C@H](CN)NC(=O)CCC(=O)NCc4ccc(cc4)CCNC(=O)[C@]4(C)CCCN4C2=O)C(=O)N[C@@H](Cc2c[nH]c4ccc(F)cc24)C(=O)N3C)cc1 [Ex-C04] ([Dap][dA][Phe(3-CH2NH2)][Trp(5-F)][NMeE]TY(Me)[αMeP]; lactam 3-5; linker N-C via X1) |  |  |  |
